Test results as given in patent US9855249B2, “Isoxazole compounds and methods for the treatment of cystic fibrosis” (FLATLEY DISCOVERY LAB, LLC, priority 2014, dated 2018).

Test system: CFTR mediated chloride current in Primary CF airway epithelial cells
Test: Equivalent current assay in primary CF airway epithelial cells (NAUC)
Format: cell-based
Settings: 24 h treatment, stimulated with forskolin and VX770, normalized to positive control 3 μM VX809
Procedure: Primary CF airway epithelial cells were obtained from the UNC Cystic Fibrosis Tissue Procurement and Cell Culture Core. The cells are grown at 37° C. in a Heracell 150i incubator using growth media (BEGM, Fischer). Cells were then transferred to differentiation media (ALI, UNC) for a minimum of 4 weeks on coated Costar snapwells. Two days before the Ussing assay the mucus on the apical surface of the cells was aspirated after incubating with 200 μL of differentiation Media for at least thirty (30) minutes. One day before the Ussing assay test compounds were added to the basolateral surface of the cells at various test concentrations dissolved in DMSO. Duplicate wells were prepared giving a n=3 or n=4 protocol.
Cells were treated for 24 hours with various combinations and concentrations of the test articles, reference standard (3 μM VX809, positive control). Compounds stock solutions were prepared in DMSO and diluted 1/1000 into ALI media to their final assay concentration. Cells were treated with combination solutions (2 mL of each dilution) and incubated at 37° C. for 24 h.
For the equivalent current assay, cells on four Transwell (24-well) plates were treated. Each Transwell plate was filled with 200 μl of HBS on the apical surface and 2 ml on the basolateral surface. Plates were placed horizontally in a heated mount at 37° C., and equilibrated for several minutes. Resting current was measured for 15 min and then blocked by the apical addition of 5 μM benzamil. After 20 min, 10 μM forskolin and 1 μM VX770 were added to both the apical and basolateral side to stimulate CFTR. An increase in chloride current is seen as an upward deflection of the trace. After another 30 min, CFTR-172 (a CFTR inhibitor, 2 μM) and/or bumetanide (20 μM) was added to block CFTR mediated chloride current.
The raw data, current vs. time for the Ussing chamber (sampling interval: 10 s) and voltage vs. time and resistance vs. time for the equivalent current assay (sampling interval: 5 minutes) were transferred to Excel (Microsoft Office Professional, version 14.0.7106.5003) for analysis. CFTR specific current was measured as the average amplitude of the increase in current elicited upon addition forskolin and ending upon addition of the CFTR channel specific blocker CFTR-172. This average is equivalent to the sum of the average forskolin activated and the average VX770-potentiated currents. The average current measured in vehicle (0.1% DMSO) treated cells, Iv, was subtracted from the current for the test article, ITA, or from the corrector reference standard VX809 (3 μM ISTD. For replicate measurements, the average vehicle subtracted response for the test article, was normalized to the average vehicle subtracted […] response of the reference corrector VX809 (3 μM). INSC=(ITA−IV)(ave)/(ISTD−IV)(ave) (Equation 1)
A second endpoint, for the equivalent current assay, evaluated was NAUC, the normalized area under the curve (AUC) measuring the response after addition of forskolin and VX770 to the time point right before the addition of the CFTR inhibitor. The AUC is effectively the average response multiplied by the duration of the response. The AUC of the test article, AUCTA was then corrected by subtracting the average vehicle response, AUCV,ave over the same time range, and normalized as for the inhibitor-sensitive current to the difference of the corrector reference standard VX809 (3 μM VX809r,ave and the vehicle response: NAUCTA=[AUCTA−AUCV,ave]/[AUCVx809r,ave−AUCV,ave](Equation 2).
The normalized value for DMSO is 0.0 and for VX-809 alone is 1.0. Combinations of compounds with VX-809 that give normalized values greater than 1.0 show activity in the combination assay. A value of 2 means the test compound doubles the effect to VX-809 alone.
Experiments were run with a minimum of n=4 replicates per concentration. […]

Structure (SMILES)	NAUC (normalized area under the curve), Test Conc 3 uM	NAUC (normalized area under the curve), Test Conc 10 uM
CN1CCN(C(=O)CCNC(=O)c2cc(-c3ccc(F)cc3)on2)CC1 [Example 1, 5-(4-fluorophenyl)-N-(3-(4-methylpiperazin-1-yl)-3-oxopropyl)isoxazole-3-carboxamide]	++ (NAUC “++” refers to an observed NAUC 170-140% of positive control)	+++ (NAUC “+++” refers to an observed NAUC >170% of positive control)
O=C(NCCC(=O)N1CCCC1)c1cc(-c2ccc(F)cc2)on1 [Example 2]	++ (NAUC “++” refers to an observed NAUC 170-140% of positive control)	+++ (NAUC “+++” refers to an observed NAUC >170% of positive control)
CCN(CC)C(=O)CCNC(=O)c1cc(-c2ccc(F)cc2)on1 [Example 3]	++ (NAUC “++” refers to an observed NAUC 170-140% of positive control)	+++ (NAUC “+++” refers to an observed NAUC >170% of positive control)
O=C(NCCC(=O)N1CCCCC1)c1cc(-c2ccc(F)cc2)on1 [Example 4]	++ (NAUC “++” refers to an observed NAUC 170-140% of positive control)	+++ (NAUC “+++” refers to an observed NAUC >170% of positive control)
O=C(CCNC(=O)c1cc(-c2ccc(F)cc2)on1)NCC1CC1 [Example 6]	++ (NAUC “++” refers to an observed NAUC 170-140% of positive control)	+++ (NAUC “+++” refers to an observed NAUC >170% of positive control)
O=C(NCCC(=O)N1CCC1)c1cc(-c2ccc(F)cc2)on1 [Example 8]	+++ (NAUC “+++” refers to an observed NAUC >170% of positive control)	+++ (NAUC “+++” refers to an observed NAUC >170% of positive control)
O=C(NCCC(=O)N1CCOCC1)c1cc(-c2ccc(F)cc2)on1 [Example 10]	++ (NAUC “++” refers to an observed NAUC 170-140% of positive control)	+++ (NAUC “+++” refers to an observed NAUC >170% of positive control)
O=C(CCNC(=O)c1cc(-c2ccc(F)cc2)on1)Nc1ccccn1 [Example 13]	+ (NAUC “+” refers to an observed NAUC <140% of positive control)	++ (NAUC “++” refers to an observed NAUC 170-140% of positive control)
CN1CCN(C(=O)CCCNC(=O)c2cc(-c3ccc(F)cc3)on2)CC1 [Example 14, 5-(4-fluorophenyl)-N-(4-(4-methylpiperazin-1-yl)-4-oxobutyl)isoxazole-3-carboxamide]	+++ (NAUC “+++” refers to an observed NAUC >170% of positive control)	+++ (NAUC “+++” refers to an observed NAUC >170% of positive control)
CN1CCN(C(=O)CCCCNC(=O)c2cc(-c3ccc(F)cc3)on2)CC1 [Example 15, 5-(4-fluorophenyl)-N-(5-(4-methylpiperazin-1-yl)-5-oxopentyl)isoxazole-3-carboxamide]	+++ (NAUC “+++” refers to an observed NAUC >170% of positive control)	+++ (NAUC “+++” refers to an observed NAUC >170% of positive control)
O=C(NCCCCC(=O)N1CCC1)c1cc(-c2ccc(F)cc2)on1 [Example 16, N-(5-(azetidin-1-yl)-5-oxopentyl)-5-(4-fluorophenyl)isoxazole-3-carboxamide]	+++ (NAUC “+++” refers to an observed NAUC >170% of positive control)	+++ (NAUC “+++” refers to an observed NAUC >170% of positive control)
O=C(NCCc1ccccc1)c1cc(-c2ccc(F)cc2)on1 [Example 17, 5-(4-fluorophenyl)-N-phenethylisoxazole-3-carboxamide]	+ (NAUC “+” refers to an observed NAUC <140% of positive control)	++ (NAUC “++” refers to an observed NAUC 170-140% of positive control)
